The results in this text go back to patent US20230406849A1, “KRAS INHIBITORS FOR TREATMENT OF CANCERS” (TYLIGAND BIOSCIENCE (SHANGHAI) LIMITED, priority 2020, published 2023).

Like-named read-outs stand apart in the source and are kept apart here. A value given as a limit tells only on which side of the number the result lay.

In one data set the test system is SW837 (KRas-G12C). Description: KRas mutant cell proliferation, CellTiter-Glo (CTG). The class given is cell-based. To be noted: Homo sapiens, rectal cancer, 72 h; for inhibition at up to 10 µM: top concentration 10 μM, read-out: Maximum inhibition %. An excerpt: In this assay, the CellTiter-Glo (CTG) kit of Promega was used to evaluate the anti-proliferation activities of the compounds of the present disclosure on 12 KRas mutant tumor cell lines.
[Test materials]: RPMI1640 medium (Hyclone, Cat #SH30809.01); fetal bovine serum (FBS) (Gibco, Cat #10099-141); phosphate buffer PBS (Solarbio, Cat #P1020-500); DMSO (Sigma, Cat #D8418-1L); detection kit CTG (Promega, Cat #G7573); 96-well cell culture plate (Thermo, Cat #3100 Series); Vibrator (QILINBEIER, Cat #QB-9001); Incubator (Thermo Scientific, Cat #Model 3100 series); microscope (OLYMPUS, Cat #CKX41SF); multi-function microplate reader (BMG LABTECH, Cat #CLARIOstar® Plus); biological safety cabinet (Thermo, Cat #Model 1300 Series A2). All cell lines used in the following assay were purchased from KYinno Biotechnology Co., Ltd.
Each of the above cell lines was cultured in the indicated complete medium at 37° C., 5% CO2, and the cells in the logarithmic growth phase were harvested and counted using a platelet counter. The cell viability was detected by the trypan blue exclusion method to ensure that the cell viability was above 90%. Cell density was adjusted using complete medium, and then inoculated into 96-well cell culture plates, at 90 μL and a total of 3000 cells per well. The cells in the 96-well plate were cultured at 37° C. and 5% CO2.
The test compound solution in culture medium was prepared, the top concentration was 10 μM, serially diluted at a dilution factor of 3.16 to afford 9 concentrations. 10 μL of each diluted compound solution was transferred to the corresponding experimental well of the 96-well cell plate and each concentration was set three replicate wells. The cells in the 96-well plate that had been dosed were incubated at 37° C. and 5% CO2 for 72 hours, and then CTG analysis was performed.
The CTG reagent was melted, and the cell plate was moved to room temperature to equilibrate for 30 minutes. 100 μL of CTG solution was added to each well, and shaken on an orbital shaker for 5 minutes to fully lyse the cells. The plate was kept at room temperature for 20 minutes to stabilize the luminescence signal, and the luminescence value of each well was scanned and the data was collected. GraphPad Prism 7.0 software was used to analyze the data, and the nonlinear Sigmoidal regression was used to fit the data to obtain a dose-response curve. The relative and absolute IC50 values and the maximum inhibition rate were calculated according to conventional methods well known to those skilled in the art.
Inhibition rate %=[1−(LumDrug to be tested−LumCulture medium control)/(LUMCell control−LumCulture medium control)]×100%

The nature of data set [1]: Pharmacokinetics in rats, IV and oral. It counts as in vivo, SD rats. To be noted: rat. The protocol: 2.2 Pharmacokinetic Properties of Representative Examples of the Present Disclosure
[Test materials] Same as above 2.1.
[Experimental procedure]: IV injection administration was performed on rats according to the similar procedure described in 2.1 above, with a drug concentration of 3 mg/mL, and the drug preparation, administration and sample collection were performed by reference to 2.1 above. For the oral administration group, the drug was formulated to a 3 mg/mL suspension in 0.5% methylcellulose MC-400cp (Aladdin, M112866), and gavage administered in 10 mL/kg. Blood samples were collected at the time points of 0.25, 0.5, 1, 2, 4, 6, 8 and 24 hours after administration via external jugular vein puncture, centrifuged at low temperature for 20 minutes, and the plasma samples were collected and stored at −80° C. until analysis.
The subsequent sample analysis and data processing are similar to those described in 2.1.

As to `C=CC(=O)N1CCN(c2c(C#N)cnc3c(F)c(-c4ccc(F)c5sc(N)nc45)c(Cl)cc23)CC1` [Example 9, 4-(4-Acryloylpiperazin-1-yl)-7-(2-amino-7-fluorobenzo[d]thiazol-4-yl)-6-chloro-8-fluoroquinoline-3-carbonitrile], the half-maximal inhibitory concentration (IC50) with SW837 (KRas-G12C) (read-out: Absolute IC50) is 431 nM. Besides, the IC50 in the data set with SW837 (KRas-G12C) (read-out: Relative IC50) was found to be 17 nM. Besides, in the data set on SW837 (KRas-G12C), the inhibition at up to 10 µM is 60%. Besides, in data set [1] (male, SD, plasma, IV, 3 mg/kg), the total exposure AUC(0-inf) is 3310 ng·h/mL, the AUC(0-t) came to 3310 ng·h/mL, the Vd was found to be 0.63 L/kg and the clearance is 15.6 mL/min/kg. For the same compound, in data set [1] (male, SD, plasma, IV, 3 mg/kg), the half-life is 0.67 h. For the same compound, in data set [1] (male, SD, plasma, PO, 30 mg/kg), the AUC(0-inf) amounted to 7870 ng·h/mL, the AUC(0-t) is 7780 ng·h/mL, the Cmax stood at 2390 ng/mL and the Tmax came to 1.33 h. This compound also had a F in data set [1] (PO 30 mg/kg vs IV 3 mg/kg) of 23.8%.
With `C=CC(=O)N1CCN(c2ncnc3c(F)c(-c4ccc(F)c5sc(N)nc45)c(Cl)cc23)CC1` [Ref. Comp. A, reference compound], the half-maximal inhibitory concentration (IC50) is above 10000 nM in the data set with SW837 (KRas-G12C) (read-out: Absolute IC50) and 18 nM in the data set with SW837 (KRas-G12C) (read-out: Relative IC50). Besides, the inhibition at up to 10 µM in the data set on SW837 (KRas-G12C) worked out at 48.6%.
